Measured values as given in patent US8501446B2 (Vertex Pharmaceuticals Incorporated, priority 2004, dated 2013).

How the values were obtained:
Format in all cases: biochemical
ROCK I (AA 6-553) = target: T1, ROCK I (AA 6-553) (Homo sapiens, UniProt Q13464); experiment: ROCK inhibition assay, standard coupled enzyme system ("Enzyme"); settings: enzyme-linked assay
T1 construct: ROCK I (AA 6-553)
In short: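 ROCK I (AA 6-553) at 45 nM and 30 °C with 45 μM ATP and 200 μM peptide, in 100 mM HEPES pH 7.5, 10 mM MgCl2, 25 mM NaCl, 2 mM DTT, 1.5% DMSO. ADP output read by a PK/LDH coupled system: 2.5 mM PEP, 350 μM NADH, 30 μg/ml PK, 10 μg/ml LDH.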

[1] = target: T2, full length Aurora-A (AA 1-403) (Homo sapiens, UniProt O14965); experiment: Aurora-A inhibition assay, standard coupled enzyme system; settings: average Ki if more than one value determined
T2 construct: full length Aurora-A (AA 1-403)
T2 sequence (O14965 1-403): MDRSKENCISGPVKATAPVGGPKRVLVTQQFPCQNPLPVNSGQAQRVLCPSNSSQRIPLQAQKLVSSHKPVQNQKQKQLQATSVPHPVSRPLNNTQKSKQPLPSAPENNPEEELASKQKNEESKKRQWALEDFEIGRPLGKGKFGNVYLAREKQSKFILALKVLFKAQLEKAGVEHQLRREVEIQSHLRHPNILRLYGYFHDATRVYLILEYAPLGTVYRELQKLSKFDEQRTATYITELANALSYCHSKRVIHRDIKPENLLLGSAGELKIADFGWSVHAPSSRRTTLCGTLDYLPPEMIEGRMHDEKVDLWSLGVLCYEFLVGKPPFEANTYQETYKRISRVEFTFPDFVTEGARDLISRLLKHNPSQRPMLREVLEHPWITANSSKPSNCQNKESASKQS

Aurora-B = Aurora-B (Homo sapiens, UniProt Q96GD4); experiment: Aurora-B inhibition assay, radioactive assay; settings: average Ki if more than one value determined
Chain of Aurora-B (Q96GD4 whole entry): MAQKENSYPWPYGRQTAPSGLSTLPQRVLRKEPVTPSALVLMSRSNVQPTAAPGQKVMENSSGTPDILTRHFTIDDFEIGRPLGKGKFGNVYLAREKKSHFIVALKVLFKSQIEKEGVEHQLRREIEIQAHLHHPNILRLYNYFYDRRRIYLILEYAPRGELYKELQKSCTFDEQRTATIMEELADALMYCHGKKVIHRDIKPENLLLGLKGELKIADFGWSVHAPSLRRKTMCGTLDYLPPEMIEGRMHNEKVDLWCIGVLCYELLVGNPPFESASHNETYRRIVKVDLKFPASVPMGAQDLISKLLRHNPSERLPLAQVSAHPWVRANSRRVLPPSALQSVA
Experimental: Compounds were screened for their ability to inhibit JAK3 using a standard radioactive enzyme assay. 1.5 μL/well of a DMSO stock containing serial dilutions of a compound of the present invention (concentrations ranging from 667 μM to 46 nM) was placed in a 96 well polycarbonate plate. 50 μL per well of kinase buffer (100 mM HEPES (pH 7.4), 10 mM MgCl2, 25 mM NaCl, 1 mM DTT, and 0.01% bovine serum albumin (BSA)) containing 2 μM poly(Glu)4Tyr and 10 μM ATP was also added to the plate. To initiate the reaction, 50 μL kinase buffer containing 2 nM JAK3 enzyme was added. Final ATP concentration was 5 μM [γ-^33P] ATP (200 μCi ^33P ATP/μmol ATP (Perkin Elmer, Cambridge, Mass.). After 20 minutes at room temperature (25° C.), the reaction was stopped by adding 50 μL 20% trichloroacetic acid (TCA)/0.4 mM ATP to each well. The entire content of each well was then transferred to a 96 well glass fiber filter plate using a TomTek Cell Harvester. After washing, 60 μL scintillation fluid was added and ^33P incorporation detected using a Perkin Elmer TopCount. After removing mean background values for all of the data points the data was fit using Prism software to obtain a Ki(app). Inhibition of JAK2 was measured as above except that final poly(Glu)4Tyr concentration was 15 μM and final ATP concentration was 12 μM.
Some compounds were screened for their ability to inhibit ROCK using a standard radioactive enzyme assay. Assays were carried out in a solution containing 100 mM HEPES (pH 7.5), 10 mM MgCl2, 25 mM NaCl, 2 mM DTT, and 1.5% DMSO. Final substrate concentrations in the assay were 13 μM [γ-^33P] ATP (25 mCi ^33P ATP/mmol ATP, Perkin Elmer, Cambridge, Mass./Sigma Chemicals, St Louis, Mo.) and 27 μM Myelin Basic Protein (MBP). Final enzyme concentration in the assay was 5 nM ROCK. Assays were carried out at room temperature. 1.5 μl of DMSO stock containing serial dilutions of the compound of the present invention (concentrations ranging from 10 μM to 2.6 nM) was placed in a 96 well plate. 50 μl of Solution 1 (100 mM HEPES (pH 7.5), 10 mM MgCl2, […]) was added to the plate. The reaction was initiated by addition of 50 μl of Solution 2 (100 mM HEPES (pH 7.5), 10 mM MgCl2, 4 mM DTT, […] and 10 nM ROCK). After 2 hours the reaction was quenched with 50 μL of 30% trichloroacetic acid (TCA, Fisher) containing 9 mM ATP. Transfer of 140 μL of the quenched reaction to a glass fiber filter plate (Corning, Cat. No. 3511) was followed by washing 3 times with 5% TCA. 50 μL of Optima Gold scintillation fluid (Perkin Elmer) was added and the plates were counted on a Top Count (Perkin Elmer). After removing mean background values for all of the data points the data was fit using Prism software to obtain a Ki(app).
An assay stock buffer solution was prepared containing all of the reagents listed above with the exception of ATP and the test compound of interest. The assay stock buffer solution (60 μl) was incubated in a 96 well plate with 2 μl of the test compound of interest at final concentrations spanning 0.002 μM to 30 μM at 30° C. for 10 min. Typically, a 12 point titration was conducted by preparing serial dilutions (from 1 mM compound stocks) with DMSO of the test compounds in daughter plates. The reaction was initiated by the addition of 5 μl of ATP (final concentration 200 μM). Rates of reaction were obtained using a Molecular Devices Spectramax plate reader (Sunnyvale, Calif.) over 10 min at 30° C. The Ki values were determined from the rate data as a function of inhibitor concentration using computerized nonlinear regression (Prism 3.0, Graphpad Software, San Diego, Calif.). Aurora-C activity was screened in a similar manner using Aurora-C protein. Aurora-B activity was screened using a radioactive assay, such as described in Examples 1 and 2, but using Aurora-B protein.

JAK2 = JAK2 (Homo sapiens, UniProt O60674); experiment: JAK2 inhibition assay (radioactive enzyme assay, as for JAK3); settings: average Ki if more than one value determined
Chain of JAK2 (O60674 whole entry, species assumed): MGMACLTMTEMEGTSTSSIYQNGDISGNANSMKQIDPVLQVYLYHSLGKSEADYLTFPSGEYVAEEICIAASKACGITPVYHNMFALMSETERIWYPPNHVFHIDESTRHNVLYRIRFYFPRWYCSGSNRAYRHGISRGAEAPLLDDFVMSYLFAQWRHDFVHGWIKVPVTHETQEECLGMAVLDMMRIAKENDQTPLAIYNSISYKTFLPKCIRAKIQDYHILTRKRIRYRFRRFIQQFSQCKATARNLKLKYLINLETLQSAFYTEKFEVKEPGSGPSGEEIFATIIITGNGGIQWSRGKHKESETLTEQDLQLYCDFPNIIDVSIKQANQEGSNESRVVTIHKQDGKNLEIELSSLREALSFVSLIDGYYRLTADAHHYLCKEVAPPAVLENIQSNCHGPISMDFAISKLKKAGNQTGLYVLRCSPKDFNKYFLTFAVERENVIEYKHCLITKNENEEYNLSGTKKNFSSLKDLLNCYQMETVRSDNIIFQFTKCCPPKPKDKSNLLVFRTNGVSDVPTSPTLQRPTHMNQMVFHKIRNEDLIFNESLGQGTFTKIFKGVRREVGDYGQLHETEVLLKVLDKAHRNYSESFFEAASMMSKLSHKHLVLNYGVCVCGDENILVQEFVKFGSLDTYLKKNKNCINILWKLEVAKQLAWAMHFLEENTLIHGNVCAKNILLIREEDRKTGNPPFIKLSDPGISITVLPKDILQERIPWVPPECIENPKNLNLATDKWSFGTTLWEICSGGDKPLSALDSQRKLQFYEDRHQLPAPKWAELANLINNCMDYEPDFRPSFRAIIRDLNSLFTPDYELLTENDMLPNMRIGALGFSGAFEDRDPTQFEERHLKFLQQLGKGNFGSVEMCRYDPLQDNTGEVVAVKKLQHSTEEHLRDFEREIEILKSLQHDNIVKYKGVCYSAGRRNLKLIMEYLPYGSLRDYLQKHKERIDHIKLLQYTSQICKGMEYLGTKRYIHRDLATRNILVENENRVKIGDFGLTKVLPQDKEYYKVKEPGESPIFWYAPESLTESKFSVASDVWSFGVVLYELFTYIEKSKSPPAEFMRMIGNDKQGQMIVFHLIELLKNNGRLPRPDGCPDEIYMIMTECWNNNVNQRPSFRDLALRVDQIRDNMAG
In short: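 Both kinases: poly(Glu)4Tyr substrate in 100 mM HEPES pH 7.4, 10 mM MgCl2, 1 mM DTT. Run 20 min at 25° C, TCA stop, filter-bound ³³P counted, Ki(app) fitted after background subtraction. JAK3: final [γ-³³P]ATP 5 μM, enzyme added as 2 nM solution. JAK2: final poly(Glu)4Tyr 15 μM, final ATP 12 μM.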

JAK3 = target: T3, JAK3 (Homo sapiens, UniProt P52333); experiment: JAK3 inhibition assay (standard radioactive enzyme assay); settings: average Ki if more than one value determined
T3 sequence (P52333 1-1124): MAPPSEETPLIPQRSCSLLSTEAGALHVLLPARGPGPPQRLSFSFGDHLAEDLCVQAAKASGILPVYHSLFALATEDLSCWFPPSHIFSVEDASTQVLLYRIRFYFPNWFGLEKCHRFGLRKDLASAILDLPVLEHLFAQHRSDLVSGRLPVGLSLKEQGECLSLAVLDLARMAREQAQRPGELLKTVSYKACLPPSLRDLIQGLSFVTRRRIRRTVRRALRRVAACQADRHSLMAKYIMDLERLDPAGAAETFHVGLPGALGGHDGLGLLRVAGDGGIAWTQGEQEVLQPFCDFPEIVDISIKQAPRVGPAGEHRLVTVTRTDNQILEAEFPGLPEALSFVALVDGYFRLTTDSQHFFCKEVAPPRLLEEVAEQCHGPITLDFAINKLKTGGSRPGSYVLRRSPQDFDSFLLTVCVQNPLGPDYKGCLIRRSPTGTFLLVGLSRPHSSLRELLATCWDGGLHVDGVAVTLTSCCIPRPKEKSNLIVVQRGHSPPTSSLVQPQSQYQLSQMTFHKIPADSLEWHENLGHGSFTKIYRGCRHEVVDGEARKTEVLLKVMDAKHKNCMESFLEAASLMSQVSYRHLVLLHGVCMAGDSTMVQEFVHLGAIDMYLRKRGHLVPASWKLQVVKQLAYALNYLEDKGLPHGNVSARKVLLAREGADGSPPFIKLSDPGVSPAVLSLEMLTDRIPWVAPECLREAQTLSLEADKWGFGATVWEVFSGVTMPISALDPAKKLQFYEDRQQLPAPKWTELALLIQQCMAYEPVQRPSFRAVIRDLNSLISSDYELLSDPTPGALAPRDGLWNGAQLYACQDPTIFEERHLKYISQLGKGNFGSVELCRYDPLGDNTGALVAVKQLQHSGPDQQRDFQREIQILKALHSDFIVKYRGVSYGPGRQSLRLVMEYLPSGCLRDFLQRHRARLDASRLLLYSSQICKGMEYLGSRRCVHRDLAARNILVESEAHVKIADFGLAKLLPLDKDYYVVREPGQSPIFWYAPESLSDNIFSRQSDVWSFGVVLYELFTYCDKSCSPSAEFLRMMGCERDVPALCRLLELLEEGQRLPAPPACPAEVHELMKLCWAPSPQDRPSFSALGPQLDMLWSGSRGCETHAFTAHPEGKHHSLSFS

T1 sequence (Q13464 6-553, species assumed): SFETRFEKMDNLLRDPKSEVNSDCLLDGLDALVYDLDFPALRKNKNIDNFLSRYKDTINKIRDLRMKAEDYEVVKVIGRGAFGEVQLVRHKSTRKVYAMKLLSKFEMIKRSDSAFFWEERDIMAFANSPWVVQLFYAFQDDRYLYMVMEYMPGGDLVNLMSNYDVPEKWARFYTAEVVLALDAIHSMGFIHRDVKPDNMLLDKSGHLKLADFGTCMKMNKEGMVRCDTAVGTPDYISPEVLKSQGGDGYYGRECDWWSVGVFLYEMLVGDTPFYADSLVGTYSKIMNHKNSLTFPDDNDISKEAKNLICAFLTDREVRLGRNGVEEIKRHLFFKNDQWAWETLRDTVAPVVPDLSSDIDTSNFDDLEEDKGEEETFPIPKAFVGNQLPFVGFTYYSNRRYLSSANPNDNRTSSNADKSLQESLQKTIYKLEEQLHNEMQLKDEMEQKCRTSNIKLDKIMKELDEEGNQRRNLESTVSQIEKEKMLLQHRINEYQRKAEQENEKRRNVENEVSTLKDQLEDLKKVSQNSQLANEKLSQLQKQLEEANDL

| SMILES | Ki (ROCK I (AA 6-553)) [µM] | Ki [1] [µM] | Ki (Aurora-B) [µM] | Ki (JAK2) [µM] | Ki (JAK3) [µM] |
| --- | --- | --- | --- | --- | --- |
| C[C@H](Nc1cc(NCCO)nc(-c2c[nH]c3ncc(Cl)cc23)n1)C(=O)NCC(F)(F)F [Compound 417] | 0.5 to 5 | < 0.5 | < 0.5 | – | – |
| C[C@H](Nc1nc(-c2c[nH]c3ncc(Cl)cc23)ncc1F)c1cccc(OC(=O)NO)c1 [Compound 375] | 0.5 to 5 | < 0.5 | < 0.5 | – | – |
| C[C@H](Nc1nc(-c2c[nH]c3ncc(Cl)cc23)nc2ccccc12)c1ccc(F)cc1 [Compound 404] | 0.5 to 5 | < 0.5 | 0.5 to 5 | – | – |
| C[C@H](Nc1nc(-c2c[nH]c3ncc(Cl)cc23)ncc1C(F)(F)F)C(=O)NCC(F)(F)F [Compound 418] | 0.5 to 5 | < 0.5 | < 0.5 | – | – |
| C[C@H](Nc1cc(NCCN(C)C)nc(-c2c[nH]c3ncc(Cl)cc23)n1)C(=O)NCC(F)(F)F [Compound 419] | – | 0.5 to 5 | 0.5 to 5 | – | – |
| C[C@H](Nc1nc(-c2c[nH]c3ncc(Cl)cc23)ncc1F)C(=O)NCCc1nc2ccccc2[nH]1 [Compound 459] | – | 0.5 to 5 | 0.5 to 5 | – | – |
| C[C@H](Nc1nc(-c2c[nH]c3ncc(Cl)cc23)ncc1F)C(=O)NCCSCc1c(Cl)cccc1Cl [Compound 462] | – | 0.5 to 5 | 0.5 to 5 | – | – |
| CC(=O)N1[C@H](C)CN(c2cccc(-c3c[nH]c4ncc(NC(=O)c5cccnc5)cc34)n2)C[C@@H]1C [Compound 163] | 0.5 to 5 | 0.5 to 5 | – | < 0.5 | < 0.5 |
| CC(=O)N1[C@H](C)CN(c2cccc(-c3c[nH]c4ncc(NC(=O)CCCN5CCNCC5)cc34)n2)C[C@@H]1C [Compound 152] | 0.5 to 5 | 0.5 to 5 | – | < 0.5 | < 0.5 |
| CC(=O)N1[C@H](C)CN(c2ccc(C#N)c(-c3c[nH]c4ncc(Cl)cc34)n2)C[C@@H]1C [Compound 93] | 0.5 to 5 | < 0.5 | – | < 0.5 | < 0.5 |
| CC(=O)N1[C@H](C)CN(c2cccc(-c3c[nH]c4ncc(NC(=O)CCCN5CCOCC5)cc34)n2)C[C@@H]1C [Compound 153] | 0.5 to 5 | 0.5 to 5 | – | < 0.5 | < 0.5 |

Continued, values first:

| Ki (ROCK I (AA 6-553)) [µM] | Ki [1] [µM] | Ki (Aurora-B) [µM] | Ki (JAK2) [µM] | Ki (JAK3) [µM] | SMILES |
| --- | --- | --- | --- | --- | --- |
| 0.5 to 5 | < 0.5 | 0.5 to 5 | – | – | O=C(CNc1nc(-c2c[nH]c3ncc(Cl)cc23)ncc1C(F)(F)F)NCC(F)(F)F [Compound 421] |
| 0.5 to 5 | < 0.5 | < 0.5 | – | – | CNC(=O)[C@@H](Nc1nc(-c2c[nH]c3ncc(Cl)cc23)ncc1F)C(C)(C)C [Compound 385] |
| 0.5 to 5 | < 0.5 | < 0.5 | – | – | C[C@H](Nc1nc(-c2c[nH]c3ncc(Cl)cc23)ncc1N)c1ccc(F)cc1 [Compound 423] |
| 0.5 to 5 | 0.5 to 5 | 0.5 to 5 | – | – | CC(C)OCCCNC(=O)[C@H](C)Nc1nc(-c2c[nH]c3ncc(Cl)cc23)ncc1F [Compound 440] |
| 0.5 to 5 | 0.5 to 5 | 0.5 to 5 | – | – | C[C@H](Nc1nc(-c2c[nH]c3ncc(Cl)cc23)ncc1F)C(=O)NCCc1cn(C)cn1 [Compound 434] |
| 0.5 to 5 | < 0.5 | < 0.5 | – | – | C[C@H](Nc1nc(-c2c[nH]c3ncc(Cl)cc23)ncc1F)c1cccc(OCCO)c1 [Compound 341] |
| 0.5 to 5 | < 0.5 | < 0.5 | – | – | CNC(=O)[C@H](COC)Nc1nc(-c2c[nH]c3ncc(Cl)cc23)ncc1F [Compound 388] |
| – | < 0.5 | 0.5 to 5 | – | – | CCCC[C@H](C)NC(=O)[C@H](C)Nc1nc(-c2c[nH]c3ncc(Cl)cc23)ncc1F [Compound 463] |
| – | 0.5 to 5 | 0.5 to 5 | – | – | C[C@H](Nc1nc(-c2c[nH]c3ncc(Cl)cc23)ncc1F)C(=O)NCCOc1ccccc1 [Compound 457] |
| – | < 0.5 | 0.5 to 5 | – | – | C#CCNc1nc(-c2c[nH]c3ncc(Cl)cc23)ncc1F [Compound 382] |
| – | 0.5 to 5 | 0.5 to 5 | – | – | C[C@H](Nc1nc(-c2c[nH]c3ncc(Cl)cc23)ncc1F)C(=O)NCCCN1CCCC1=O [Compound 460] |
| – | < 0.5 | < 0.5 | – | – | COC(=O)COc1cccc([C@H](C)Nc2nc(-c3c[nH]c4ncc(Cl)cc34)ncc2F)c1 [Compound 335] |
